Data published in patent publication US20250129430A1, “HIGH ATP-AFFINITY PROTEIN AS THERAPEUTIC TARGET FOR INTRACTABLE CANCER MOLECULAR SUBTYPES AND INHIBITOR THEREOF” (VeraVerse Co., Ltd., priority 2021, published 2025).

Tests used:
Assay in all cases: Cell viability drug screen, 12-point dose-response AUC
Assay type in all cases: cell-based, human
AGS = details: 72 hours; for Average Area Under the Viability Curve (AUC), AUC norm value: AGS cells (non-SEM subtype)
Procedure, shortened: (§1)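 AUC comes from 12-point half-log dose–response curves, normalized to DMSO-treated cells and integrated trapezoidally, repeats averaged. Luminescent viability read after 72 h compound exposure at 37 °C; cells plated 5×10^3 per well 24 h before dosing.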

Hs746T = details: 72 hours; for Average Area Under the Viability Curve (AUC), AUC norm value: Hs746T cells (SEM subtype)
Procedure, shortened: (§2)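 Dose-response AUC reflects 72 h drug exposure of gastric cancer cells in a 12-point, half-log format, with viability read by luminescence and normalized to DMSO (0.5%).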

KATO3 = KATO3 cells, 72 hours
Procedure, shortened: as §2

MKN1 = MKN1 cells, 72 hours
Procedure, shortened: as §2

MKN28 = MKN28 cells, 72 hours
Procedure, shortened: as §2

MKN45 = details: 72 hours; for Average Area Under the Viability Curve (AUC), AUC norm value: MKN45 cells (non-SEM subtype)
Procedure, shortened: as §1

MKN74 = MKN74 cells, 72 hours
Procedure, shortened: as §1

NCC19 = NCC19 cells, 72 hours
Procedure, shortened: as §2

NCC20 = NCC20 cells, 72 hours
Procedure, shortened: as §2

NCC24 = NCC24 cells, 72 hours
Procedure, shortened: as §2

NCC59 = NCC59 cells, 72 hours
Procedure, shortened: as §2

NCI_N87 = NCI_N87 cells, 72 hours
Procedure, shortened: as §2

OCUM1 = OCUM1 cells, 72 hours
Procedure, shortened: as §2

SK4 = details: 72 hours; for Average Area Under the Viability Curve (AUC), AUC norm value: SK4 cells (SEM subtype)
Procedure, shortened: as §2

SNU16 = SNU16 cells, 72 hours
Procedure, shortened: as §2

SNU1750 = details: 72 hours; for Average Area Under the Viability Curve (AUC), AUC norm value: SNU1750 cells (SEM subtype)
Procedure, shortened: as §2

SNU1967 = SNU1967 cells, 72 hours
Procedure, shortened: as §2

SNU1 = SNU1 cells, 72 hours
Procedure, shortened: as §2

SNU216 = details: 72 hours; for Average Area Under the Viability Curve (AUC), AUC norm value: SNU216 cells (non-SEM subtype)
Procedure, shortened: as §1

SNU484 = details: 72 hours; for Average Area Under the Viability Curve (AUC), AUC norm value: SNU484 cells (SEM subtype)
Procedure, shortened: as §2

SNU601 = SNU601 cells, 72 hours
Procedure, shortened: as §2

SNU620 = SNU620 cells, 72 hours
Procedure, shortened: as §2

SNU638 = SNU638 cells, 72 hours
Procedure, shortened: as §2

SNU668 = details: 72 hours; for Average Area Under the Viability Curve (AUC), AUC norm value: SNU668 cells (SEM subtype)
Procedure, shortened: as §2

SNU719 = SNU719 cells, 72 hours
Procedure, shortened: as §1

YCC11 = details: 72 hours; for Average Area Under the Viability Curve (AUC), AUC norm value: YCC11 cells (SEM subtype)
Procedure, shortened: as §2

YCC2 = YCC2 cells, 72 hours
Procedure, shortened: as §2

YCC3 = YCC3 cells, 72 hours
Procedure, shortened: as §2

FU97 = test system: FU97; set-up: Average Area Under the Viability Curve (AUC), AUC norm value: scale not given here; details: FU97 cells, 72 hours
Procedure, shortened: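 Trapezoidal AUC of a 12-point, DMSO-normalized dose-response curve. Luminescent viability was measured after 72 h of exposure at 37° C to half-log serial dilutions (0.5% DMSO control), dosed 24 h after plating FU97 cells at 5×10^3 per well.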

Compound: COc1cccc2c1C(=O)c1c(O)c3c(c(O)c1C2=O)C[C@@](O)(C(=O)CO)C[C@@H]3O[C@H]1C[C@H](N)[C@H](O)[C@H](C)O1 [Doxorubicin (Adriamycin), Doxorubicin]
- Average Area Under the Viability Curve (AUC), AUC norm value (AGS): −1.081
- Average Area Under the Viability Curve (AUC), AUC norm value (Hs746T): −0.08449
- Average Area Under the Viability Curve (AUC), AUC norm value (KATO3): 7.9338
- Average Area Under the Viability Curve (AUC), AUC norm value (MKN1): −0.2016
- Average Area Under the Viability Curve (AUC), AUC norm value (MKN28): 2.98
- Average Area Under the Viability Curve (AUC), AUC norm value (MKN45): 2.505
- Average Area Under the Viability Curve (AUC), AUC norm value (MKN74): 1.522
- Average Area Under the Viability Curve (AUC), AUC norm value (NCC19): 2.867
- Average Area Under the Viability Curve (AUC), AUC norm value (NCC20): −0.4879
- Average Area Under the Viability Curve (AUC), AUC norm value (NCC24): −0.6126
- Average Area Under the Viability Curve (AUC), AUC norm value (NCC59): 1.231
- Average Area Under the Viability Curve (AUC), AUC norm value (NCI_N87): 6.891
- Average Area Under the Viability Curve (AUC), AUC norm value (OCUM1): 0.6788
- Average Area Under the Viability Curve (AUC), AUC norm value (SK4): 0.213
- Average Area Under the Viability Curve (AUC), AUC norm value (SNU16): −0.0398
- Average Area Under the Viability Curve (AUC), AUC norm value (SNU1750): −0.9576
- Average Area Under the Viability Curve (AUC), AUC norm value (SNU1967): −0.8787
- Average Area Under the Viability Curve (AUC), AUC norm value (SNU1): 0
- Average Area Under the Viability Curve (AUC), AUC norm value (SNU216): 0.7466
- Average Area Under the Viability Curve (AUC), AUC norm value (SNU484): −0.8418
- Average Area Under the Viability Curve (AUC), AUC norm value (SNU601): 4.481
- Average Area Under the Viability Curve (AUC), AUC norm value (SNU620): −0.2009
- Average Area Under the Viability Curve (AUC), AUC norm value (SNU638): −0.3342
- Average Area Under the Viability Curve (AUC), AUC norm value (SNU668): −0.3909
- Average Area Under the Viability Curve (AUC), AUC norm value (SNU719): 4.66
- Average Area Under the Viability Curve (AUC), AUC norm value (YCC11): −1.877
- Average Area Under the Viability Curve (AUC), AUC norm value (YCC2): 1.4121
- Average Area Under the Viability Curve (AUC), AUC norm value (YCC3): 2.8776
- Average Area Under the Viability Curve (AUC), AUC norm value (FU97): −1.237

Compound: CCCCCCCCCCCCCCCC[n+]1ccccc1 [Cetylpyridinium Chloride]
- Average Area Under the Viability Curve (AUC), AUC norm value (AGS): −0.1044
- Average Area Under the Viability Curve (AUC), AUC norm value (Hs746T): 0.2943
- Average Area Under the Viability Curve (AUC), AUC norm value (KATO3): 1.072
- Average Area Under the Viability Curve (AUC), AUC norm value (MKN1): 0.9994
- Average Area Under the Viability Curve (AUC), AUC norm value (MKN28): 0.4876
- Average Area Under the Viability Curve (AUC), AUC norm value (MKN45): 0
- Average Area Under the Viability Curve (AUC), AUC norm value (MKN74): −0.4176
- Average Area Under the Viability Curve (AUC), AUC norm value (NCC19): 1.205
- Average Area Under the Viability Curve (AUC), AUC norm value (NCC20): −0.2318
- Average Area Under the Viability Curve (AUC), AUC norm value (NCC24): 0.06564
- Average Area Under the Viability Curve (AUC), AUC norm value (NCC59): 1.497
- Average Area Under the Viability Curve (AUC), AUC norm value (NCI_N87): 1.075
- Average Area Under the Viability Curve (AUC), AUC norm value (OCUM1): −0.1441
- Average Area Under the Viability Curve (AUC), AUC norm value (SK4): −1.312
- Average Area Under the Viability Curve (AUC), AUC norm value (SNU16): −0.1534
- Average Area Under the Viability Curve (AUC), AUC norm value (SNU1750): −0.3613
- Average Area Under the Viability Curve (AUC), AUC norm value (SNU1967): −0.5001
- Average Area Under the Viability Curve (AUC), AUC norm value (SNU1): 0.5171
- Average Area Under the Viability Curve (AUC), AUC norm value (SNU216): −0.1483
- Average Area Under the Viability Curve (AUC), AUC norm value (SNU484): −0.7401
- Average Area Under the Viability Curve (AUC), AUC norm value (SNU601): 2.328
- Average Area Under the Viability Curve (AUC), AUC norm value (SNU620): 0.09525
- Average Area Under the Viability Curve (AUC), AUC norm value (SNU638): −0.3142
- Average Area Under the Viability Curve (AUC), AUC norm value (SNU668): −0.02952
- Average Area Under the Viability Curve (AUC), AUC norm value (SNU719): 1.718
- Average Area Under the Viability Curve (AUC), AUC norm value (YCC11): −1.129
- Average Area Under the Viability Curve (AUC), AUC norm value (YCC2): 0.1421
- Average Area Under the Viability Curve (AUC), AUC norm value (YCC3): 0.3901
- Average Area Under the Viability Curve (AUC), AUC norm value (FU97): −2.039

Compound: CCCOc1ccc2nc(NC(=O)OC)[nH]c2c1 [Oxybendazole]
- area under the viability curve (AUC), normalized (AGS; AGS cells, 12-point dose-response): −1.064
- area under the viability curve (AUC), normalized (Hs746T; Hs746T cells, 12-point dose-response): 1.204
- area under the viability curve (AUC), normalized (KATO3; 12-point dose-response): 3.472
- area under the viability curve (AUC), normalized (MKN1; 12-point dose-response): −0.5859
- area under the viability curve (AUC), normalized (MKN28; 12-point dose-response): −0.1307
- area under the viability curve (AUC), normalized (MKN45; MKN45 cells, 12-point dose-response): 2.187
- area under the viability curve (AUC), normalized (MKN74; 12-point dose-response): 0.4498
- area under the viability curve (AUC), normalized (NCC19; 12-point dose-response): 1.219
- area under the viability curve (AUC), normalized (NCC20; 12-point dose-response): −0.7466
- area under the viability curve (AUC), normalized (NCC24; 12-point dose-response): −1.131
- area under the viability curve (AUC), normalized (NCC59; 12-point dose-response): 2.518
- area under the viability curve (AUC), normalized (NCI_N87; 12-point dose-response): −0.1928
- area under the viability curve (AUC), normalized (OCUM1; 12-point dose-response): 1.059
- area under the viability curve (AUC), normalized (SK4; SK4 cells, 12-point dose-response): −0.1414
- area under the viability curve (AUC), normalized (SNU16; 12-point dose-response): 2.326
- area under the viability curve (AUC), normalized (SNU1750; SNU1750 cells, 12-point dose-response): 0.4952
- area under the viability curve (AUC), normalized (SNU1967; 12-point dose-response): 0
- area under the viability curve (AUC), normalized (SNU1; 12-point dose-response): −1.007
- area under the viability curve (AUC), normalized (SNU216; SNU216 cells, 12-point dose-response): 1.744
- area under the viability curve (AUC), normalized (SNU484; SNU484 cells, 12-point dose-response): −0.00299
- area under the viability curve (AUC), normalized (SNU601; 12-point dose-response): 1.095
- area under the viability curve (AUC), normalized (SNU620; 12-point dose-response): −1.528
- area under the viability curve (AUC), normalized (SNU638; 12-point dose-response): −0.2808
- area under the viability curve (AUC), normalized (SNU668; SNU668 cells, 12-point dose-response): −0.3638
- area under the viability curve (AUC), normalized (SNU719; 12-point dose-response): 3.17
- area under the viability curve (AUC), normalized (YCC11; YCC11 cells, 12-point dose-response): −0.2902
- area under the viability curve (AUC), normalized (YCC2; 12-point dose-response): 0.7894
- area under the viability curve (AUC), normalized (YCC3; 12-point dose-response): 2.897
- area under the viability curve (AUC), normalized (FU97; 12-point dose-response): −0.3548
